Data set [1] has as its system CTLL-2-bcl2 cells. Conditions: after metabolic activation.
In data set [2] the test system is CTLL-2-bcl2 cells. In kind it is cell-based, mouse. Conditions: after metabolic activation.
Data set [3] deals with CTLL-2 cells. In kind it is cell-based, mouse. Conditions: after metabolic activation.
For data set [4], the system named is CTLL-2 cells. Particulars: after metabolic activation.
Data set [5] has as its system CTLL-2-bcl2 cells. Briefly: Micronucleus test without metabolic activation in CTLL-2-bcl2 cells. Particulars: harvested at 15th hour.
Data set [6] relates to CTLL-2 cells. In words: Measurement of apoptosis (Annexin V-FITC, YOPRO-1) in CTLL-2 cells. In kind it is cell-based, mouse.
Data set [7] concerns CTLL-2-bcl2 cells. In words: Measurement of apoptosis (Annexin V-FITC, YOPRO-1) in CTLL-2-bcl2 cells. The format is cell-based, mouse. Particulars: for induction of apoptosis (result in words): in parallel to micronucleus test.
In data set [8] the test system is CTLL-2 cells. In words: Micronucleus test without metabolic activation in CTLL-2 cells. Particulars: for formation of micronuclei / micronucleated cell frequency (result in words): harvested at 15th hour, without metabolic activation.
The subject of data set [9] is CTLL-2 cells. Briefly: Metaphase analysis test in CTLL-2 cells. In kind it is cell-based, mouse. Conditions: for aberrant cells: CTLL-2.
In data set [10] the test system is human lymphocytes. Conditions: human lymphocytes treated 44 hours; from 250 μM of dexamethasone; control 2%.
The subject of data set [11] is CTLL-2 cells. Particulars: mouse, 15 h.
Data set [12] has as its system human lymphocytes. Conditions: 44 hours.
For data set [13], the system named is CTLL-2-bcl2 cells. Conditions: mouse, 15 h.
[14] abbreviates: CTLL-2 cells, in parallel to micronucleus test.

Read-outs that look alike come from different tables or passages of the source. Starred links: 1 amine or outer side, 2 acyl side, 3 side chain; linkers in the order of their positions; H or OH if unused. Positions of bridges follow the written chain, without caps; N, C: chain ends. Non-standard residues stand in square brackets, D forms with d. Residues, ends and D or L forms follow the SMILES beside them. Chains are numbered I, II in the order given. Actinocin(9to1) = Cc1c2oc3c(C)ccc(C(=O)[*:1])c3nc-2c(C(=O)[*:2])c(N)c1=O; NMeV = CN[C@H](C(=O)O)C(C)C; Sar = CNCC(=O)O

For `Cc1c2ccccc2c(C)c2c1ccc1ccccc12` [7,12-dimethylbenz[a]anthracene], the “formation of micronuclei (result in words)” value with CTLL-2-bcl2 cells [1] and in the data set on CTLL-2 cells [4] was “induce the formation of micronuclei” throughout. Moreover, the “apoptosis (result in words)” value in the data set with CTLL-2-bcl2 cells [2] and in the data set with CTLL-2 cells [3] was “apoptosis only on the CTLL-2 cells” in each case.

As to `Cc1c2oc3c(C)ccc(C(=O)N[C@@H]4C(=O)N[C@H](C(C)C)C(=O)N5CCC[C@H]5C(=O)N(C)CC(=O)N(C)[C@@H](C(C)C)C(=O)O[C@@H]4C)c3nc-2c(C(=O)N[C@@H]2C(=O)N[C@H](C(C)C)C(=O)N3CCC[C@H]3C(=O)N(C)CC(=O)N(C)[C@@H](C(C)C)C(=O)O[C@@H]2C)c(N)c1=O` [Actinomycin D] (I: T[dV]P[Sar][NMeV] / II: T[dV]P[Sar][NMeV]; ester I:1-I:C, II:1-II:C; linker I:N-II:N via Actinocin(9to1)), the “formation of micronuclei / micronucleated cell frequency (result in words)” value with CTLL-2-bcl2 cells [5] is on record as “neither apoptosis nor genotoxicity is observed”; in the data set on CTLL-2 cells [8] (CTLL-2 cells), “positive response in terms of clastogenesis”. The “induction of apoptosis (result in words)” value is given as “induction of apoptosis” in the data set with CTLL-2 cells [6] (setting [14]) and “neither apoptosis nor genotoxicity is observed” in the data set with CTLL-2-bcl2 cells [7].

Turning to `COS(C)(=O)=O` [MMS, Methyl methanesulfonate], the “induction of apoptosis (result in words)” value in the data set on CTLL-2 cells [6] (setting [14]) and with CTLL-2-bcl2 cells [7] was “apoptotic phenomenon is not triggered” each time.

On to `CN(N=O)C(N)=O` [MNU, N-methyl-N-nitrosourea], for which the “formation of micronuclei / micronucleated cell frequency (result in words)” value in the data set on CTLL-2-bcl2 cells [5] and with CTLL-2 cells [8] (CTLL-2 cells) was “positive response” each time. Further, the “induction of apoptosis (result in words)” value in the data set with CTLL-2 cells [6] (setting [14]) and in the data set on CTLL-2-bcl2 cells [7] was “without inducing apoptosis” in each case.

On to `COC(=O)Nc1nc2ccc(C(=O)c3cccs3)cc2[nH]1` [Nocodazole, nocodazole], for which the “induction of apoptosis (result in words)” value in the data set on CTLL-2 cells [6] (setting [14]) was “induce apoptosis”.

With `C[C@H]1CCC/C=C/[C@@H]2C[C@H](O)C[C@H]2[C@H](O)/C=C/C(=O)O1` [brefeldin A], the “induction of apoptosis (result in words)” value in the data set on CTLL-2 cells [6] (setting [14]) is recorded as “induce apoptosis”.

On to `CC[C@@]1(O)C(=O)OCc2c1cc1n(c2=O)Cc2cc3ccccc3nc2-1` [camptothecin], for which the “induction of apoptosis (result in words)” value in the data set with CTLL-2 cells [6] (setting [14]) is “induce apoptosis”.

Take `COc1cc(/C=C/C(=O)CC(=O)/C=C/c2ccc(O)c(OC)c2)ccc1O` [curcumin]: the “induction of apoptosis (result in words)” value in the data set on CTLL-2 cells [6] (setting [14]) is listed as “induce apoptosis”.

As to `O=P1(N(CCCl)CCCl)NCCCO1` (stereo not drawn) [cyclophosphamide], the “formation of micronuclei (result in words)” value in the data set with CTLL-2-bcl2 cells [1] and with CTLL-2 cells [4] was “induce the formation of micronuclei” throughout. Besides, the “apoptosis (result in words)” value with CTLL-2-bcl2 cells [2] and in the data set on CTLL-2 cells [3] was “apoptosis only on the CTLL-2 cells” in each case.

As to `C[C@@H]1C[C@H]2[C@@H]3CCC4=CC(=O)C=C[C@]4(C)[C@@]3(F)[C@@H](O)C[C@]2(C)[C@@]1(O)C(=O)CO` [dexamethasone], the aberrant cells is reported as 8% with CTLL-2 cells [9] (from 37.5 nM of dexamethasone, control 2%) and 11% in the data set with human lymphocytes [10]. Further, the “chromosomal aberrations (result in words)” value in the data set with CTLL-2 cells [9] (CTLL-2 cells) was “chromosome and chromatid breaking but no exchange”. In addition, in the data set on CTLL-2 cells [9] (CTLL-2 cells), the “lowest concentration with number of aberrant cells statistically different (p=0.05) from control” value was 37.5 nM. Also, the “concentration from which apoptosis increased” value in the data set on CTLL-2 cells [6] (CTLL-2, in parallel to metaphase analysis) was determined as 37.5 nM; in the data set with human lymphocytes [12] it was 250 µM. Besides, the apoptosis with CTLL-2 cells [6] (CTLL-2, in parallel to metaphase analysis, 150 nM dexamethasone) turned out to be 30%; in the data set with CTLL-2 cells [6] (CTLL-2, in parallel to metaphase analysis, from 37.5 nM of dexamethasone, control approximately 7%), 18%; in the data set with human lymphocytes [12] (from 250 μM of dexamethasone, control approximately 16%), 40%. For the same molecule, the “percentage of apoptotic cells” value with CTLL-2 cells [6] (CTLL-2, Annexin-V-FITC and YOPRO-1, maximum from 50 nM of dexamethasone, negative control 6%) was found to be 30.5%. The micronucleated cells in the data set with CTLL-2 cells [11] (50 nM) is 60 ‰.

With `CN1C(=O)CN=C(c2ccccc2)c2cc(Cl)ccc21` [diazepam], the “formation of micronuclei / micronucleated cell frequency (result in words)” value in the data set with CTLL-2-bcl2 cells [5] and with CTLL-2 cells [8] (CTLL-2 cells) was “positive response” throughout. For the same molecule, the “induction of apoptosis (result in words)” value with CTLL-2 cells [6] and in the data set with CTLL-2-bcl2 cells [7] was “without inducing apoptosis” each time.

As to `CCOS(C)(=O)=O` [ethyl methanesulfonate], the “induction of apoptosis (result in words)” value in the data set on CTLL-2 cells [6] (setting [14]) and with CTLL-2-bcl2 cells [7] was “without inducing apoptosis” in each case.

Consider `O=c1c(-c2ccc(O)cc2)coc2cc(O)cc(O)c12` [genistein], for which the “induction of apoptosis (result in words)” value in the data set with CTLL-2 cells [6] (setting [14]) was “induce apoptosis”.

For the molecule `CN1C(=O)[C@]23CC4=CC=C[C@H](O)[C@H]4N2C(=O)[C@@]1(CO)SS3` [gliotoxin], the “formation of micronuclei / micronucleated cell frequency (result in words)” value with CTLL-2-bcl2 cells [5] is given as “as was the number of micronucleated cells”. The aberrant cells in the data set on CTLL-2 cells [9] (from 50 μM of gliotoxin, control 1%) amounted to 10%. In addition, in the data set with CTLL-2 cells [9] (CTLL-2 cells), the “chromosomal aberrations (result in words)” value is “positive response” and the “lowest concentration with aberrations / positive response in terms of clastogenesis” value worked out at 50 µM. Besides, in the data set with CTLL-2 cells [6], the level of apoptosis is reported as 45%. In the data set on CTLL-2 cells [6] (CTLL-2, in parallel to metaphase analysis, […], controls 5%), this molecule returned an apoptosis of 17%. Also, the “lowest concentration with apoptosis different from control (p=0.01)” value in the data set on CTLL-2 cells [6] (CTLL-2 cells) worked out at 100 nM. For the same molecule, in the data set on CTLL-2-bcl2 cells [7], the “induction of apoptosis (result in words)” value was “apoptosis was maintained at a lower rate”. In addition, the “lowest concentration with increase in micronuclei versus control” value with CTLL-2 cells [8] (CTLL-2 cells) is on record as 100 nM. The “number of aberrant (micronucleated) cells” value in the data set on CTLL-2 cells [8] (nontransfected CTLL-2, gliotoxin at the highest dose (200 nM), increased from 5‰) was 20 ‰.

For `CSCCC=O` [methional], in the data set with CTLL-2 cells [9] (CTLL-2 cells), the “chromosomal aberrations (result in words)” value is given as “structural aberrations, such as breaks or gaps” and the “lowest concentration with aberrations / positive response in terms of clastogenesis” value is 18.75 µM. Also, the “cells bearing chromosomal aberrations” value with CTLL-2 cells [9] (nontransfected CTLL-2, methional 18.75 μM, control 3%) is recorded as 13%. Moreover, the “level of apoptotic cells” value in the data set with CTLL-2 cells [6] (CTLL-2, methional at the highest dose (150 μM), control 6.5%) is 24%. For the same molecule, in the data set with CTLL-2 cells [6] (CTLL-2 cells, first dose), the “lowest concentration with statistically significant (p=0.01) induction of apoptosis” value was found to be 60.8 µM. For the same molecule, the “induction of apoptosis (result in words)” value with CTLL-2-bcl2 cells [7] is on record as “neither apoptosis nor micronuclei appeared”. For the same molecule, the “lowest concentration with statistically significant (p=0.01) micronucleated cells” value in the data set on CTLL-2 cells [11] was found to be 60.8 µM. In the data set on CTLL-2 cells [11] (150 μM), the “number of micronucleated cells” value was 98 ‰.

Regarding `CCN(CC)CCCC(C)Nc1c2ccc(Cl)cc2nc2ccc(OC)cc12` (stereo not drawn) [quinacrin], in the data set with CTLL-2 cells [6] (setting [14]), the “induction of apoptosis (result in words)” value was “induce apoptosis”.

As for `CN[C@@H]1C[C@H]2O[C@@](C)([C@@H]1OC)n1c3ccccc3c3c4c(c5c6ccccc6n2c5c31)C(=O)NC4` [staurosporine], the “formation of micronuclei / micronucleated cell frequency (result in words)” value in the data set on CTLL-2-bcl2 cells [5] is reported as “neither apoptosis nor genotoxicity is observed”; in the data set with CTLL-2 cells [8] (CTLL-2 cells) it was “positive response in terms of clastogenesis”. The “induction of apoptosis (result in words)” value in the data set on CTLL-2 cells [6] (setting [14]) was “induction of apoptosis”; with CTLL-2-bcl2 cells [7], “neither apoptosis nor genotoxicity is observed”.

As to `CC(=O)O[C@H]1C(=O)[C@@]2(C)[C@H]([C@H](OC(=O)c3ccccc3)[C@]3(O)C[C@H](OC(=O)[C@H](O)[C@@H](NC(=O)c4ccccc4)c4ccccc4)C(C)=C1C3(C)C)[C@]1(OC(C)=O)CO[C@@H]1C[C@@H]2O` [taxol], in the data set on CTLL-2 cells [6] (setting [14]), the “induction of apoptosis (result in words)” value is “induce apoptosis”. For the same molecule, the “apoptosis at the dose that increases micronuclei” value with CTLL-2 cells [6] (CTLL-2 cells, taxol 25 nM) is listed as “do not cause apoptosis”. Further, in the data set on CTLL-2-bcl2 cells [13], the “concentration at which the difference in number of micronuclei between CTLL-2 and CTLL-2-bcl2 lines appears” value is 0.025 µM; the “lowest concentration with increase in number of micronuclei” value is on record as 50 nM. For the same molecule, the “apoptosis at the dose that increases micronuclei” value in the data set with CTLL-2-bcl2 cells [7] (taxol 50 nM) is “do not cause apoptosis”. Moreover, the “lowest concentration with increase in micronuclei versus control” value with CTLL-2 cells [11] turned out to be 25 nM.

Take mitomycin C: the “formation of micronuclei / micronucleated cell frequency (result in words)” value in the data set on CTLL-2-bcl2 cells [5] and with CTLL-2 cells [8] (CTLL-2 cells) was “micronucleated cell frequencies increase significantly with the dose” each time.

As for thapsigargine, the “induction of apoptosis (result in words)” value in the data set on CTLL-2 cells [6] (setting [14]) was “induce apoptosis”.

Source of the values: US6713261B1, “Method for assessing genotoxicity of a compound” (Institut National de la Sante et de la Recherche Medicale, priority 1999, dated 2004).
